In ChEMBL document CHEMBL1201862, “PubChem BioAssay data set” (2004):
Active and inactive are the calls of the source.

What was measured:
[1] = viability loss of HMLE_sh_eGFP cells – cell-based, luminescence, counter-screen for HMLE_sh_ECad selective toxicity project, dose response (AID 463074); assay type: functional, Homo sapiens;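 note: HMLE human mammary epithelial cells expressing control shRNA against eGFP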
[2] = NIH3T3 cell viability loss – ATP luminescence, mouse fibroblasts, counter-screen, dose response (AID 2010); assay type: functional, cell-based;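 note: cells exposed to compound for about 90 hours before reading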
[3] = Luminescence Cell-Based Dose Retest to Confirm Inhibitors of Cancer Stem Cells. [Related pubchem assays (depositor defined):AID2717, AID2721]; assay type: functional; details: Homo sapiens
[4] = Trypanosoma cruzi growth suppression in host cells – NIH3T3 host cells, beta-gal luminescence, confirmation (AID 2044); assay type: functional, cell-based;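 note: intracellular parasites grown in NIH/3T3 mouse fibroblasts as host cells; luminescent beta-galactosidase reporter signal from transgenic T. cruzi replicating inside host cells; inhibitors lower the luminescence signal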
[5] = microbe, parasite or virus in culture; assay type: functional; details: Mycobacterium tuberculosis
Tumor necrosis factor = Tumor necrosis factor (Homo sapiens, UniProt P01375); experiment: analog potency on TNFa NF-kB signaling – cell-based, revised, SAR follow-up (AID 2337); assay type: functional
Sequence of Tumor necrosis factor (P01375 whole entry): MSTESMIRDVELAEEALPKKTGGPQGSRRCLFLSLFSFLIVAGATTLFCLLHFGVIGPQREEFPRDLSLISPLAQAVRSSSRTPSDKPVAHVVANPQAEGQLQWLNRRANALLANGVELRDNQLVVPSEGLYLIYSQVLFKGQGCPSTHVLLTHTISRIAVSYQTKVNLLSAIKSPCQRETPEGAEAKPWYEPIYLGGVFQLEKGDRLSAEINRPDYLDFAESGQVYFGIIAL

HEK293 [6] = experiment: cells; details: Homo sapiens
[7] = target: T1, Tyrosine-protein phosphatase non-receptor type 7 (Homo sapiens, UniProt P35236); assay type: functional
T1 sequence (P35236 whole entry): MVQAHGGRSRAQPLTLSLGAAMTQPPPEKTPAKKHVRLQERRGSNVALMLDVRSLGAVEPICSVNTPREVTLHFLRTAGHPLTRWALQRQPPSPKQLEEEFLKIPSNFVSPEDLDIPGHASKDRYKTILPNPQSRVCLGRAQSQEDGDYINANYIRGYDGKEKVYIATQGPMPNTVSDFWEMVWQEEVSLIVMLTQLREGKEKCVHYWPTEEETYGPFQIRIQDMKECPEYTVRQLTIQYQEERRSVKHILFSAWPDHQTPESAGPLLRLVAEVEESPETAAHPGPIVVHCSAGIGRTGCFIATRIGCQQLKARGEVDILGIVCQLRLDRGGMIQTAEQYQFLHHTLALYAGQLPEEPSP

[8] = target: Intestinal-type alkaline phosphatase (Homo sapiens, UniProt P09923); experiment: inhibition of human intestinal alkaline phosphatase – biochemical, dose response (AID 488876); assay type: functional
Sequence of Intestinal-type alkaline phosphatase (Homo sapiens, UniProt P09923) (P09923 whole entry): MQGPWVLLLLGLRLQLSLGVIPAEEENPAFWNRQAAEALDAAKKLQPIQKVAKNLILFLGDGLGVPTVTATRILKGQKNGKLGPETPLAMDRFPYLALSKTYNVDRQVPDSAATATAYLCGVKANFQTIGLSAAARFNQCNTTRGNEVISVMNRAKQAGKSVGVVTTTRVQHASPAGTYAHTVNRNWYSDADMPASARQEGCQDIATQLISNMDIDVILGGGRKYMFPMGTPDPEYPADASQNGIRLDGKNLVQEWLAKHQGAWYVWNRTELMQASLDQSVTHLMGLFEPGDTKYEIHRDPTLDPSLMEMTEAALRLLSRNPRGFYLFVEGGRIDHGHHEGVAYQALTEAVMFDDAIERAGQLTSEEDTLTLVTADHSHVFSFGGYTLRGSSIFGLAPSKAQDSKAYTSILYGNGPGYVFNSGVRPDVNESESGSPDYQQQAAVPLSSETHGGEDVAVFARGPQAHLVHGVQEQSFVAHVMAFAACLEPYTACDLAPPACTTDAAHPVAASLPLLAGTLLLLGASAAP

[9] = target: T2, Tyrosine-protein phosphatase non-receptor type 22 (Homo sapiens, UniProt Q9Y2R2); assay type: functional
T2 sequence (Q9Y2R2 whole entry): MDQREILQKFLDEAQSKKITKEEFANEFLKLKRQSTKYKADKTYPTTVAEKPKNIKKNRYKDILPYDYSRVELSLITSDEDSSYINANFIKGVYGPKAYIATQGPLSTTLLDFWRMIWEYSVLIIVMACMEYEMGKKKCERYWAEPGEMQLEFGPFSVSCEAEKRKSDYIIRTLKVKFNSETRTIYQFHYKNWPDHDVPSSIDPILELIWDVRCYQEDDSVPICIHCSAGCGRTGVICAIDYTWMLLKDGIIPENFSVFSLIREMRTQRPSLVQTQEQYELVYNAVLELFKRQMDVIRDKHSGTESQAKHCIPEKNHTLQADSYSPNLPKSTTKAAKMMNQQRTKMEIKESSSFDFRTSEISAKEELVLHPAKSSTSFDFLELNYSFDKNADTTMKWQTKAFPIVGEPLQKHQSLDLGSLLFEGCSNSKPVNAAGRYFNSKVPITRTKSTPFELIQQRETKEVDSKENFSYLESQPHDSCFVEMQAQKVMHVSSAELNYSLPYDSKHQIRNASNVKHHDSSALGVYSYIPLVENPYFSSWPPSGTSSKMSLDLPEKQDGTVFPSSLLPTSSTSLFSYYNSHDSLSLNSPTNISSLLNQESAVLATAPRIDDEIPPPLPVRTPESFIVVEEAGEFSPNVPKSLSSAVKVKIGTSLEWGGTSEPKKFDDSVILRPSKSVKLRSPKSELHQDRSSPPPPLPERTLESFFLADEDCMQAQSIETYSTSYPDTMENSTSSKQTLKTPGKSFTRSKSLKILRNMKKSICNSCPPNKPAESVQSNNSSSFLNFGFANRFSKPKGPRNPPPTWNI

[10] = target: Intestinal-type alkaline phosphatase (Mus musculus, UniProt P24822); experiment: PubChem AID 488785; assay type: functional
Sequence of Intestinal-type alkaline phosphatase (Mus musculus, UniProt P24822) (P24822 whole entry): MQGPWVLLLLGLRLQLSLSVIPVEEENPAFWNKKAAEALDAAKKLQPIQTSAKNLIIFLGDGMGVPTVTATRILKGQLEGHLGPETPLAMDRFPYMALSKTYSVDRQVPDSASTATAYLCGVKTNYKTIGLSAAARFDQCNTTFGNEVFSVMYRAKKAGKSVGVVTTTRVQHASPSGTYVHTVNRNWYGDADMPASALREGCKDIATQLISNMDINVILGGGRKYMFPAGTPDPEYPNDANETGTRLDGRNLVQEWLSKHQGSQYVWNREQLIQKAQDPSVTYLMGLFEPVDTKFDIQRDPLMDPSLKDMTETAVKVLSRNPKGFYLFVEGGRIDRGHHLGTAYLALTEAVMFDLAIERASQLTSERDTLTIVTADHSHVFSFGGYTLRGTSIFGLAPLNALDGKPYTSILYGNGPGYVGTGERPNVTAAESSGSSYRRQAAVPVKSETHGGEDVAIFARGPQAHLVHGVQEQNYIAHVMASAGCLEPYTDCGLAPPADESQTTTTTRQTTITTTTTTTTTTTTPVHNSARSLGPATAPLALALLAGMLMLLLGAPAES

[11] = target: T3, Alkaline phosphatase, tissue-nonspecific isozyme (Homo sapiens, UniProt P05186); experiment: TNAP enzyme inhibition by screening hits, dose response, selectivity assay for mouse IAP inhibitor project, biochemical, human TNAP, uHTS hits (AID 488906); assay type: functional
T3 sequence (P05186 whole entry): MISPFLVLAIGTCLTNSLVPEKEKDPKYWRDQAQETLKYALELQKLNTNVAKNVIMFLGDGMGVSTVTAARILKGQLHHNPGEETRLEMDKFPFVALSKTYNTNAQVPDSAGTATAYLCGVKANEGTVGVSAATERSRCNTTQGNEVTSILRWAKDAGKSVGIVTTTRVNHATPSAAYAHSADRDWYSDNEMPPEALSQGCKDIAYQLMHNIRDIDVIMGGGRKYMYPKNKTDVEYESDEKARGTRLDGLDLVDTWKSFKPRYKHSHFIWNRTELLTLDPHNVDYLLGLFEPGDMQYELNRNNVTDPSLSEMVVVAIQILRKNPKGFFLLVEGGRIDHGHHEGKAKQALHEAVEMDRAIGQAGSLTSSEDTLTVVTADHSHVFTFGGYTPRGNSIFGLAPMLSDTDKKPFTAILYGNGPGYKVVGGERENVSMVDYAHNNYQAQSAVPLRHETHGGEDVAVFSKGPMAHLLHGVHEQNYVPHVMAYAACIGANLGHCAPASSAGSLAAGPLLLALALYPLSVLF

[12] = target: T2, Tyrosine-protein phosphatase non-receptor type 22; assay type: functional; remark: listed apart in the source
Cytochrome P450 2C19 = Cytochrome P450 2C19 (Homo sapiens, UniProt P33261); experiment: Cytochrome panel assay with activity outcomes. Panel member name: p450-cyp2c19 Compounds with AC50 equal or less than 10 uM are considered active; assay type: functional
Sequence of Cytochrome P450 2C19 (P33261 whole entry): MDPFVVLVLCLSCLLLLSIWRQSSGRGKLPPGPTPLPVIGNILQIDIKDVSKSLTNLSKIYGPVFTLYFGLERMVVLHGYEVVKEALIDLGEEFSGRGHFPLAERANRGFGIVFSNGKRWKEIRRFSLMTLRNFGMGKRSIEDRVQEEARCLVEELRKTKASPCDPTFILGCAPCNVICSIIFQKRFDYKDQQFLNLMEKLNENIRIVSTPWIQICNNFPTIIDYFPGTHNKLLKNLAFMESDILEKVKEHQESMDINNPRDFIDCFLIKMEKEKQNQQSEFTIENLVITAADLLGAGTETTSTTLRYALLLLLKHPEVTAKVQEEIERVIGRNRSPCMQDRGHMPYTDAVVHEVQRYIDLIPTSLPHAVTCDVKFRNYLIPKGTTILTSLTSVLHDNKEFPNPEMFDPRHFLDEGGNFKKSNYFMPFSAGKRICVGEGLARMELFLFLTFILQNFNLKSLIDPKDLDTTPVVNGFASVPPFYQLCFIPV

Cytochrome P450 2D6 = Cytochrome P450 2D6 (Homo sapiens, UniProt P10635);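 note: CYP2D6 member of a cytochrome P450 panel assay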
Sequence of Cytochrome P450 2D6 (P10635 whole entry): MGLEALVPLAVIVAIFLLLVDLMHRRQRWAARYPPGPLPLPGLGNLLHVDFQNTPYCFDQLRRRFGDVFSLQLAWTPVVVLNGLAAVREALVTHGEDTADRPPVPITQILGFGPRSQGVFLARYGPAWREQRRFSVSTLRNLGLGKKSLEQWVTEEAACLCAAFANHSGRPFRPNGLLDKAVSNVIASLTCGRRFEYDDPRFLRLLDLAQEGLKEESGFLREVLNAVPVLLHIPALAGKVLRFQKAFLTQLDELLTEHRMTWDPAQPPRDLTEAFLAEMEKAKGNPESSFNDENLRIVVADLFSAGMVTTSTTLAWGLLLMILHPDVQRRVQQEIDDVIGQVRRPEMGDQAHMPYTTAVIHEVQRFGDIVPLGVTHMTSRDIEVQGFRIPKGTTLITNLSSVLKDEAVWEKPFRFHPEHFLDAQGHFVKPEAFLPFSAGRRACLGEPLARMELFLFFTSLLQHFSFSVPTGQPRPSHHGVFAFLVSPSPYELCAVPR

INS1 = experiment: INS-1E survival protection against cytokine death – cell-based, luminescence, retest, dose response (AID 449756); assay type: functional; details: Rattus norvegicus;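 note: cell death triggered by IL-1 beta plus TNF-alpha plus IFN-gamma mixture; protective hits raise ATP signal compared with cytokine alone wells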
HEK293 [13] = experiment: cells; assay type: functional, cell-based; details: Homo sapiens
[14] = viability of HCT116 lacking mutant beta-catenin – cell-based, human colon tumor, dose response (AID 1045); assay type: functional;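 note: HCT116 colon tumor cells with beta catenin knocked out; cells exposed to compound for 60 hours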
HEK293 [15] = experiment: inhibition of NOD1-driven NF-kB reporter – cell-based, luminescence, uHTS, primary screen (AID 1578); assay type: functional; details: Homo sapiens
HEK293 [16] = experiment: NOD2 signaling inhibitors in MDP-stimulated cells, cell-based, uHTS, luminescence (AID 2001); assay type: functional; details: Homo sapiens
HEK293 [17] = experiment: cells; assay type: functional, cell-based; details: Homo sapiens; remark: listed apart in the source
[18] = target: T4, Apoptotic protease-activating factor 1 (Homo sapiens, UniProt O14727); assay type: functional
T4 sequence (O14727 whole entry): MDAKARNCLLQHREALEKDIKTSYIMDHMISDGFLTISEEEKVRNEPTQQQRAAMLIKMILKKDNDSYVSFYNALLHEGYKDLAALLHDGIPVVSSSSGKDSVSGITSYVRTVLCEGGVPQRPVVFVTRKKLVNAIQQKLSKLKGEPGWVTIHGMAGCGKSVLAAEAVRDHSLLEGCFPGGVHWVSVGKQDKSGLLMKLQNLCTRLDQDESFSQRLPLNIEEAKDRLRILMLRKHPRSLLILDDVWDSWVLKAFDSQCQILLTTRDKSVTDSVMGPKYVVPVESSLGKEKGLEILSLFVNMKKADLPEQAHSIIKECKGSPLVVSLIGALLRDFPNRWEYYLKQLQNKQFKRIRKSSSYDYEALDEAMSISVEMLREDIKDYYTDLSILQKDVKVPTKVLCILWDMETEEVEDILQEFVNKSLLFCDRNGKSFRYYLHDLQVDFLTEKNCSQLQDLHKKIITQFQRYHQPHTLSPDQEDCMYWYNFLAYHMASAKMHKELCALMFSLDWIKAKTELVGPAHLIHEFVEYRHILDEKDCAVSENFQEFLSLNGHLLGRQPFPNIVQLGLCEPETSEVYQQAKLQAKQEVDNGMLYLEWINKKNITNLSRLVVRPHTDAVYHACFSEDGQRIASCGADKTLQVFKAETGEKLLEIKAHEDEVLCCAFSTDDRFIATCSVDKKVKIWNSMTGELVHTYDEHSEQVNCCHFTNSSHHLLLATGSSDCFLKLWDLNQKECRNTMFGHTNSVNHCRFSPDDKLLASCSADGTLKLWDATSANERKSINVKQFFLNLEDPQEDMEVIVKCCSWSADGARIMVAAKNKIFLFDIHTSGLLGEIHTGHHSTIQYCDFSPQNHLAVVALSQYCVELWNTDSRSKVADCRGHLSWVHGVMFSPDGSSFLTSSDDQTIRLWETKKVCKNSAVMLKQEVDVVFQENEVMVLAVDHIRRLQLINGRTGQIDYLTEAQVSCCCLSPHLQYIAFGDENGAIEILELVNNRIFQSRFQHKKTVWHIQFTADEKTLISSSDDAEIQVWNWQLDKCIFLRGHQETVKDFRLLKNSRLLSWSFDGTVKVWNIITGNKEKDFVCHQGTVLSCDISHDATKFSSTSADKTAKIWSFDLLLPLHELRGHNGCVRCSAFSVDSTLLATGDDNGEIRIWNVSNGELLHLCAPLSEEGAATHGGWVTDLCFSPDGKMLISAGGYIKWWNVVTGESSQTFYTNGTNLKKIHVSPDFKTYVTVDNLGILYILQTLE

[19] = viability of PTEN-deleted HCT116 cells – cell-based, HCT116 PTEN knockout, dose response (AID 1047); assay type: functional;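 note: HCT116 colon tumor cells with PTEN knocked out; cells exposed to compound for 60 hours before readout; potency for loss of cell viability measured by luminescence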

For `CN(C)S(=O)(=O)c1cccc(NC(=O)CSc2cccc3cccnc23)c1`, the AC50 [1] was 36.2 µM (active), the EC50 [2] was 4.3 µM (active) and the AC50 [3] was 12.6 µM (active). The EC50 [4] was 0.802 µM (active) and the CC50 [5] was > 40 µM (active).
For `CCOc1ccc(NC(=O)c2ccc(CN3CCCCC3)cc2)cc1`, the IC50 (Tumor necrosis factor) was > 20 µM (inactive) and the IC50 (HEK293 [6]) was > 20 µM (inactive).
For `S=C(NCc1ccc(Cl)cc1Cl)NC1CCCCC1`, the IC50 [7] was > 79.4 µM (inactive), the IC50 [8] was 29.2 µM (active) and the IC50 [9] was > 79.4 µM (inactive). For the same molecule, the IC50 [10] was 6.56 µM (active), the IC50 [11] was 87.6 µM (active) and the IC50 [12] was > 79.4 µM (inactive).
In the case of `O=C(O)CCCc1ccc2ccc3ccccc3c2c1`, the AC50 (Cytochrome P450 2C19) is reported as “inconclusive” and the AC50 (Cytochrome P450 2D6) is reported as “inconclusive”.
For `CCCCCCc1cc2cc(-c3nnc(-c4ccccc4O)o3)c(=O)oc2cc1O`, the AC50 (INS1) was 7.17 µM (active), the IC50 (HEK293 [13]) was > 20 µM (inactive) and the EC50 [14] was 11.2 µM (active). The EC50 (HEK293 [15]) was 4.51 µM (active), the IC50 (HEK293 [16]) was 4.36 µM (inactive) and the IC50 (HEK293 [17]) was 3.37 µM (active). For the same molecule, the IC50 [18] was 89 µM (active) and the EC50 [19] was 13 µM (active).
